Values joined by “and” are separate entries in the source; they are usually repeats but may differ in a detail not shown here. Identical values can stand only once.
Key:
[1] = system: MV-4–11 (AML)-xenografted mice; assay: MV-4–11 AML xenograft efficacy and overall survival; assay type: in vivo; design: anti-tumor efficacy in MV-4-11 (AML)-tumor bearing mice in combination with SoC (tumor measurement per animal): unit not given here; conditions: for Overall survival of MV-4-11 (AML)-tumor bearing mice: BRD-810 50 mg/kg; for anti-tumor efficacy in MV-4-11 (AML)-tumor bearing mice in combination with SoC (tumor measurement per animal): individual animals, BRD-810 50mg/kg
[2] = system: THP-1 (AML) xenografted mice; assay: THP-1 AML xenograft efficacy; assay type: in vivo; design: anti-tumor efficacy in THP-1 (AML)-tumor bearing mice, individual measurements: unit not given here

Compound | Overall survival of MV-4-11 (AML)-tumor bearing mice ([1]; day 0 post treatment start) | Overall survival of MV-4-11 (AML)-tumor bearing mice ([1]; day 1 post treatment start) | anti-tumor efficacy in MV-4-11 (AML)-tumor bearing mice in combination with SoC (tumor measurement per animal) ([1]; day 1 post treatment start) | Overall survival of MV-4-11 (AML)-tumor bearing mice ([1]; day 4 post treatment start) | anti-tumor efficacy in MV-4-11 (AML)-tumor bearing mice in combination with SoC (tumor measurement per animal) ([1]; day 4 post treatment start) | Overall survival of MV-4-11 (AML)-tumor bearing mice ([1]; day 8 post treatment start) | anti-tumor efficacy in MV-4-11 (AML)-tumor bearing mice in combination with SoC (tumor measurement per animal) ([1]; day 8 post treatment start) | Overall survival of MV-4-11 (AML)-tumor bearing mice ([1]; day 11 post treatment start) | anti-tumor efficacy in MV-4-11 (AML)-tumor bearing mice in combination with SoC (tumor measurement per animal) ([1]; day 11 post treatment start) | Overall survival of MV-4-11 (AML)-tumor bearing mice ([1]; day 15 post treatment start) | anti-tumor efficacy in MV-4-11 (AML)-tumor bearing mice in combination with SoC (tumor measurement per animal) ([1]; day 15 post treatment start) | Overall survival of MV-4-11 (AML)-tumor bearing mice ([1]; day 16 post treatment start) | anti-tumor efficacy in MV-4-11 (AML)-tumor bearing mice in combination with SoC (tumor measurement per animal) ([1]; day 16 post treatment start) | Overall survival of MV-4-11 (AML)-tumor bearing mice ([1]; day 17 post treatment start) | anti-tumor efficacy in MV-4-11 (AML)-tumor bearing mice in combination with SoC (tumor measurement per animal) ([1]; day 17 post treatment start) | Overall survival of MV-4-11 (AML)-tumor bearing mice ([1]; day 19 post treatment start) | Overall survival of MV-4-11 (AML)-tumor bearing mice ([1]; day 22 post treatment start) | Overall survival of MV-4-11 (AML)-tumor bearing mice ([1]; day 23 post treatment start) | Overall survival of MV-4-11 (AML)-tumor bearing mice ([1]; day 24 post treatment start) | Overall survival of MV-4-11 (AML)-tumor bearing mice ([1]; day 25 post treatment start) | also measured
Nc1ncn([C@@H]2O[C@H](CO)[C@@H](O)[C@H]2O)c(=O)n1 [Azacytidine] | 100 | 100 | 37.66 and 36.25 and 41.68 and 30.5 and 27.18 and 34.36 and 33.31 and 32.32 and 36.01 and 43.7 | 100 | 54.55 and 56.25 and 56.22 and 40.13 and 37.55 and 44.2 and 45.16 and 42.15 and 44.53 and 58.86 | 100 | 65.52 and 65.46 and 68.31 and 53.62 and 40.92 and 60.68 and 62.4 and 50.31 and 59.65 and 77.78 | 100 | 89.02 and 75.69 and 101.46 and 67.13 and 49.48 and 79.37 and 79.77 and 55.4 and 81.03 and 99.97 | 100 | 108.19 and 101.3 and 133.05 and 77.44 and 61.88 and 97.99 and 123.49 and 81.45 and 115.12 and 117.74 | 100 | 125.36 and 108.14 and 139.95 and 80.65 and 62.33 and 102.82 and 127.03 and 91.37 and 119.07 and 128.51 | 100 | 137.71 and 107.49 and 162.36 and 100.14 and 70.25 and 118.23 and 133.41 and 87.57 and 140.74 and 152.32 | 0 | 0 | 0 | 0 | 0 | Overall survival of MV-4-11 (AML)-tumor bearing mice ([1]; day 28 post treatment start): 0; Overall survival of MV-4-11 (AML)-tumor bearing mice ([1]; day 30 post treatment start): 0; Overall survival of MV-4-11 (AML)-tumor bearing mice ([1]; day 32 post treatment start): 0; Overall survival of MV-4-11 (AML)-tumor bearing mice ([1]; day 34 post treatment start): 0; Overall survival of MV-4-11 (AML)-tumor bearing mice ([1]; day 37 post treatment start): 0; Overall survival of MV-4-11 (AML)-tumor bearing mice ([1]; day 39 post treatment start): 0; Overall survival of MV-4-11 (AML)-tumor bearing mice ([1]; day 41 post treatment start): 0; Overall survival of MV-4-11 (AML)-tumor bearing mice ([1]; day 44 post treatment start): 0; Overall survival of MV-4-11 (AML)-tumor bearing mice ([1]; day 46 post treatment start): 0; Overall survival of MV-4-11 (AML)-tumor bearing mice ([1]; day 48 post treatment start): 0; Overall survival of MV-4-11 (AML)-tumor bearing mice ([1]; day 51 post treatment start): 0; Overall survival of MV-4-11 (AML)-tumor bearing mice ([1]; day 53 post treatment start): 0
Nc1ccn([C@@H]2O[C@H](CO)[C@@H](O)[C@@H]2O)c(=O)n1 [cytarabine] |  |  |  |  |  |  |  |  |  |  |  |  |  |  |  |  |  |  |  |  | Antitumor efficacy, single agent ([2]; 45 mg kg^−1 subcutaneous, 3 days on, 4 days off): neither the Bcl-2 inhibitor venetoclax nor cytarabine showed appreciable single-agent efficacy; anti-tumor efficacy in THP-1 (AML)-tumor bearing mice, individual measurements ([2]; Cytarabine, day 1 post treatment start, animals #3001-#3010): 34.55 and 34.13 and 35.27 and 36.61 and 37.97 and 29.56 and 32.2 and 26.85 and 39.7 and 33.08; anti-tumor efficacy in THP-1 (AML)-tumor bearing mice, individual measurements ([2]; Cytarabine, day 3 post treatment start, animals #3001-#3010): 56.73 and 43.71 and 46.59 and 40.5 and 59.56 and 37.55 and 48.92 and 32.47 and 41.3 and 50.46; anti-tumor efficacy in THP-1 (AML)-tumor bearing mice, individual measurements ([2]; Cytarabine, day 6 post treatment start, animals #3001-#3010): 60.86 and 46.12 and 47.28 and 41.77 and 70.74 and 42.28 and 63.75 and 27.68 and 36.96 and 52.92; anti-tumor efficacy in THP-1 (AML)-tumor bearing mice, individual measurements ([2]; Cytarabine, day 8 post treatment start, animals #3001-#3010): 80.75 and 48.31 and 57.33 and 37.06 and 69.84 and 40.98 and 72.57 and 28.68 and 37.62 and 62.2; anti-tumor efficacy in THP-1 (AML)-tumor bearing mice, individual measurements ([2]; Cytarabine, day 10 post treatment start, animals #3001-#3010): 87.52 and 55.21 and 72.45 and 39.84 and 85.66 and 45.49 and 94.07 and 29.37 and 34.83 and 74.1; anti-tumor efficacy in THP-1 (AML)-tumor bearing mice, individual measurements ([2]; Cytarabine, day 13 post treatment start, animals #3001-#3010): 101.88 and 64.15 and 91.89 and 43.02 and 99.25 and 47.84 and 115.35 and 31.51 and 35.25 and 76.99
CC1(C)CCC(CN2CCN(c3ccc(C(=O)NS(=O)(=O)c4ccc(NCC5CCOCC5)c([N+](=O)[O-])c4)c(Oc4cnc5[nH]ccc5c4)c3)CC2)=C(c2ccc(Cl)cc2)C1 [venetoclax] | 100 | 100 | 33.13 and 28.19 and 34.15 and 35.82 and 29.42 and 37.09 and 44.34 and 37.28 and 33.74 and 41.97 | 100 | 32.39 and 37.39 and 43.94 and 50.14 and 32.53 and 44.14 and 52.92 and 48.8 and 41.66 and 49.99 | 100 | 41.04 and 57.44 and 59.24 and 62.99 and 49.55 and 52.42 and 59.83 and 53.52 and 48.45 and 66.98 | 100 | 47.19 and 72.26 and 75.92 and 72.38 and 72.25 and 70.02 and 85.2 and 60.52 and 70.23 and 97.04 | 100 | 63.44 and 101.62 and 98.93 and 111.48 and 113.46 and 108.85 and 111.46 and 76.94 and 80.71 and 124.01 | 100 | 66 and 108.03 and 100.41 and 123.76 and 112.88 and 118.57 and 116.35 and 89.12 and 87.16 and 125.05 | 0 | 74.19 and 130.91 and 105.55 and 136.78 and 132.34 and 126.42 and 134.13 and 95.37 and 110.48 and 139.48 | 0 | 0 | 0 | 0 | 0 | Antitumor efficacy, single agent ([2]; 100 mg kg^−1 orally, daily): neither the Bcl-2 inhibitor venetoclax nor cytarabine showed appreciable single-agent efficacy; anti-tumor efficacy in THP-1 (AML)-tumor bearing mice, individual measurements ([2]; Venetoclax, day 1 post treatment start, animals #5001-#5010): 36.27 and 38.57 and 29.6 and 32.89 and 34.28 and 28.35 and 32.76 and 34.15 and 38.81 and 36.79; anti-tumor efficacy in THP-1 (AML)-tumor bearing mice, individual measurements ([2]; Venetoclax, day 3 post treatment start, animals #5001-#5010): 46.08 and 62.31 and 36.23 and 49.99 and 71.57 and 33.25 and 37.51 and 51.73 and 48.97 and 53.06; anti-tumor efficacy in THP-1 (AML)-tumor bearing mice, individual measurements ([2]; Venetoclax, day 6 post treatment start, animals #5001-#5010): 58.2 and 76.5 and 34.06 and 66.44 and 87.06 and 33.28 and 39.03 and 72.1 and 63 and 57.59; anti-tumor efficacy in THP-1 (AML)-tumor bearing mice, individual measurements ([2]; Venetoclax, day 8 post treatment start, animals #5001-#5010): 70.38 and 85.8 and 36.3 and 78.87 and 103.9 and 36.38 and 41.14 and 85.31 and 91.47 and 80.8; anti-tumor efficacy in THP-1 (AML)-tumor bearing mice, individual measurements ([2]; Venetoclax, day 10 post treatment start, animals #5001-#5010): 100.62 and 113 and 44.66 and 100.81 and 143.73 and 36.12 and 44.28 and 122.17 and 124.4 and 110.66; anti-tumor efficacy in THP-1 (AML)-tumor bearing mice, individual measurements ([2]; Venetoclax, day 13 post treatment start, animals #5001-#5010): 129.99 and 188.46 and 53.9 and 147.24 and 211.83 and 41.12 and 60.34 and 168.23 and 177.94 and 148.93; Overall survival of MV-4-11 (AML)-tumor bearing mice ([1]; day 28 post treatment start): 0; Overall survival of MV-4-11 (AML)-tumor bearing mice ([1]; day 30 post treatment start): 0; Overall survival of MV-4-11 (AML)-tumor bearing mice ([1]; day 32 post treatment start): 0; Overall survival of MV-4-11 (AML)-tumor bearing mice ([1]; day 34 post treatment start): 0; Overall survival of MV-4-11 (AML)-tumor bearing mice ([1]; day 37 post treatment start): 0; Overall survival of MV-4-11 (AML)-tumor bearing mice ([1]; day 39 post treatment start): 0; Overall survival of MV-4-11 (AML)-tumor bearing mice ([1]; day 41 post treatment start): 0; Overall survival of MV-4-11 (AML)-tumor bearing mice ([1]; day 44 post treatment start): 0; Overall survival of MV-4-11 (AML)-tumor bearing mice ([1]; day 46 post treatment start): 0; Overall survival of MV-4-11 (AML)-tumor bearing mice ([1]; day 48 post treatment start): 0; Overall survival of MV-4-11 (AML)-tumor bearing mice ([1]; day 51 post treatment start): 0; Overall survival of MV-4-11 (AML)-tumor bearing mice ([1]; day 53 post treatment start): 0

— publication PMC11502502 (Nature cancer, 2024)
